This is an account of results in paper PMC8639922, “KSHV transactivator-derived small peptide traps coactivators to attenuate MYC and inhibits leukemia and lymphoma cell growth” (Communications Biology, 2021).

Square brackets hold non-standard residues; d marks the D form. Peptide text beside a SMILES is read from it. Orn = NCCC[C@H](N)C(=O)O; βAla = NCCC(=O)O

For assay [1], the system named is BCBL-1. In words: Flow cytometry, cell proliferation (Ki67 staining). Conditions: BCBL-1, 24 h. The format is cell-based, human. As for the experimental part:
(§1) Leukoreduction system chambers (LRS) from healthy donors were purchased from Vitalant. Peripheral blood mononuclear cells (PBMCs) were prepared by a standard Ficoll gradient method. PBMCs along with THP-1 and BCBL-1 cell lines (2 × 10^6 cells/ml, 0.2 ml 10% FBS/RPMI/DMEM per well of a 96-well plate) were treated with various doses (0–256 μM) of either VGN50 peptide or control mutant peptide for 24 h. Cell death, apoptosis, and proliferation were analyzed by flow cytometry (BD Acuri) after intracellular staining with anti-humanKi67-Alexa488 (Biolegend, 1:100) along with the isotype control antibody, annexin-V-FITC with 7-AAD staining (Biolegend) according to the manufacture’s protocol, Live/dead Fixable Red Dead Cell staining kit (Invitrogen) according to the manufacture’s protocol, or MTT assay. Peptides were commercially synthesized (GenScript) with >90% purity with TFA removal. […]
(§2) Isotype control Anti-Ki67 antibody
(§3) S-Figure 3. Flow cytometry analyses […]
(§4) Repr esent at i ve FACS pl ot s wi t h ancest r y gat i ng st r at egy of Ki 67+ popul at i on f or
(§5) BCBL-1 and BC-1 cel l s t r eat ed wi t h PBS wi t h an i sot ype cont r ol ar e shown. Mean +/-SD of
(§6) Ki 67% of t ot al BCBL-1 and BC-1 cel l s anal yzed ar e shown i n Fi g. 2e.

The test system of assay [2] is BC-1. In words: Flow cytometry, cell proliferation (Ki67 staining). The format is cell-based, human. Conditions: BC-1, 24 h. The method, then:
as §1, §2, §3, §4, §5, §6

The subject of assay [3] is KSHV PAN RNA in BCBL-1. Description: KSHV PAN RNA qRT-PCR (reactivation). To be noted: BCBL-1, 16 μM, 24 h. Format: cell-based. The method, then:
(§7) Because VGN50 is derived from the KSHV transactivator sequence, we next examined if VGN50 can inhibit KSHV lytic replication by competitively blocking the coactivator binding to K-Rta. To study this, we used the TREx-K-Rta BCBL-1 cell line, in which we can trigger the expression of exogenous Flag-tagged K-Rta in a doxycycline (Dox) inducible manner. TREx-K-Rta BCBL-1 cells were treated with […] VGN50 or mutant peptide, with or without Dox induction. We used approximately one-half of the IC50 concentration of VGN50 to treat the TREx-K-Rta BCBL-1 cells in order to avoid cell toxicity effects that would non-specifically decrease viral gene expression. KSHV gene expression was profiled with a KSHV genome-wide PCR array, using ribosomal rRNA for normalization and as an internal control. Fold activation relative to the uninduced Mut-P-treated sample (not induced: Dox -) was determined and a heatmap for KSHV lytic gene expression was generated (Fig. 3a). […] Immunoblotting was used to confirm the induction of lytic replication by Dox based on exogenous K-Rta protein (Flag-K-Rta) and the expression of two other KSHV lytic proteins (ORF57 and K-bZIP) along with actin and KSHV LANA protein as controls for equal loading and similar viral copy numbers in samples, respectively (Fig. 3b).
(§8) Fig. 3 Effects of VGN50 on KSHV gene transcription and VGN50 binding with SWI/SNF components. a KSHV qRT-PCR array analysis was used to study effects of VGN50 on KSHV gene transcription in a genome-wide manner. Uninduced (−; no doxycycline added) or dox-induced (+; 1 μg/ml) cells were treated with VGN50 or the mutant peptide (Mut-P) at a concentration of 24 μM. Samples were collected at 24 h post-treatment. Expression in uninduced cells was set as 1 for each viral gene and expression shown as fold activation relative to no-Dox samples. Selected cellular genes were also included in the PCR array for comparison. 18S ribosomal RNA was used as an internal control. b KSHV protein expression. Immunoblotting was performed to confirm both endogenous and exogenous K-Rta expression before (not induced) and after induction by Dox treatment (Dox-induced). Latent KSHV protein LANA and actin were used as controls for KSHV copy number (LANA) and loading (actin), respectively. Protein samples were collected 48-h post Dox incubation. c KSHV reactivation by VGN50 incubation. BCBL-1 and BC-1 cell lines were treated with VGN50 (16 μM concentration) and total RNA harvested at 24 h post treatment. KSHV PAN RNA expression was examined by qRT-PCR and relative expression over 18S rRNA is shown. Data are presented as mean ± SD (n = 3). d Purification of recombinant SWI/SNF components. SDS-PAGE analysis of five SWI/SNF components individually prepared from baculovirus-infected Sf9 cells. e A schematic illustration of ELISA assay to evaluate VGN50 and SWI/SNF interaction. f Analysis of VGN50 binding to SWI/SNF components by ELISA. Increasing concentrations of biotin-conjugated VGN50 or Mut-P were incubated in duplicate in an ELISA plate coated with each SWI/SNF component. Peptide binding measured as OD values at 450 nm are shown. Mean OD values were compared between the VGN50 and Mut-P in each concentration using unpaired t-test. **p < 0.01, *p < 0.05, NS no significance. Data are presented as mean ± SD with duplicated samples and repeated three times with different purified protein preps.
In general terms: Quantitative PCR measures a nucleic acid by following its amplification.

In assay [4] the test system is KSHV PAN RNA in BC-1. Description: KSHV PAN RNA qRT-PCR (reactivation). The format is cell-based. Conditions: BC-1, 16 μM, 24 h. The method, then:
as §7, §8

On to `CC(C)C[C@H](NC(=O)CCNC(=O)[C@H](CCCNC(=N)N)NC(=O)[C@H](CCCNC(=N)N)NC(=O)[C@H](CCCNC(=N)N)NC(=O)[C@H](CCCN)NC(=O)[C@H](CCCNC(=N)N)NC(=O)[C@H](CCCNC(=N)N)NC(=O)[C@H](CCCCN)NC(=O)[C@H](CCCCN)NC(=O)[C@H](N)CCCNC(=N)N)C(=O)N[C@@H](CO)C(=O)N[C@@H](CO)C(=O)N[C@@H](C)C(=O)N[C@@H](C)C(=O)N[C@@H](C)C(=O)NCC(=O)N[C@@H](CC(C)C)C(=O)N[C@@H](Cc1ccc(O)cc1)C(=O)N[C@@H](CCC(N)=O)C(=O)N[C@@H](CC(C)C)C(=O)N[C@@H](CC(=O)O)C(=O)N[C@H](C(=O)O)[C@@H](C)O` [Mt-P] (H-[dR]KKRR[Orn]RRR[βAla]LSSAAAGLYQLDT-OH; N-terminus and C-terminus assumed), for which the Ki67% amounted to 33.8765% in assay [1] (replicate 1); 32.9445% in assay [1] (replicate 2); 29.2345% in assay [1] (replicate 3); 43.3912% in assay [2] (replicate 1); 42.2259% in assay [2] (replicate 2); 43.3434% in assay [2] (replicate 3). Also, the “KSHV PAN RNA relative expression over 18S rRNA” value stood at 0.0001238 in assay [3] (replicate 1); 0.0001335 in assay [3] (replicate 2); 0.0001325 in assay [3] (replicate 3); 1.419e-5 in assay [4] (replicate 1); 1.503e-5 in assay [4] (replicate 2); 1.204e-5 in assay [4] (replicate 3).
